{"source": "patent US6627611B2", "about": "“C-glycosides and preparation of thereof as antidiabetic agents” (Kotobuki Pharmaceutical Co Ltd, priority 2000, dated 2003)", "data": [{"system": "male SD rats", "experiment": "Measurement of urinary glucose excretion in rats", "format": "in vivo, rat", "settings": "10 mg/kg i.p. administered twice at an 8 hr interval, urine collected for 24 hr after first administration", "procedure": "The pharmacological test of urinary glucose excretion in rat is described that follow.\nMeasurement of Urinary Glucose Excretion in Rats\n20 mg of test compounds were dissolved in 10 mL saline containing 20% dimethylsulufoxide.\nTest compound (10 mg/5 mL/kg, i.p.) was administered twice an 8 hr interval to male SD rats (6 weeks old, 3 animals/group). An equal volume of vehicle was given to the control group. Urine was collected for 24 hr after first administration in metabolic cages.\nThe urine was centrifuged and urine volume was measured. Glucose concentration (mg/dl) was assayed using Glucose CII test Wako (Wako Pure Chemicals, Japan). The amounts of glucose excretion during 24 hr was calculated from the following equation.\nGlucose secretion (mg/24 hr)=(A×B)/100\n(A; the urine volume, B; the glucose concentration)", "units": {"Urinary glucose excretion (mg/24 hr)": "mg/24 hr"}, "values": [{"smiles": "COc1cc(O)c(C(=O)/C=C/c2ccc3occc3c2)c(CC2OC(CO)C(O)C(O)C2O)c1", "note": "[Compound 1, 3-(Benzo[b]furan-5-yl)-1-(2′-β-D-glucopyranosylmethyl-6′-hydroxy-4′-methoxy)acrylophenone]", "Urinary glucose excretion (mg/24 hr)": 4.1}, {"smiles": "COc1cc(O)c(C(=O)/C=C/c2ccc3occc3c2)cc1[C@@H]1O[C@H](CO)[C@@H](O)[C@H](O)[C@H]1O", "note": "[Compound 3, 3-(Benzo[b]furan-5-yl)-3′-β-D-glucopyranosyl-6′-hydroxy-4′-methoxyacrylophenone]", "Urinary glucose excretion (mg/24 hr)": 241}, {"smiles": "COC(=O)OC[C@H]1O[C@@H](c2cc(C(=O)/C=C/c3ccc4occc4c3)c(O)cc2OC)[C@H](O)[C@@H](O)[C@@H]1O", "note": "[Compound 4, 3-(Benzo[b]furan-5-yl)-3′-(6-O-methoxycarbonyl-β-D-glucopyranosyl)-6′-hydroxy-4′-methoxy-acrylophenone]", "Urinary glucose excretion (mg/24 hr)": 289}, {"smiles": "COC(=O)OCC1OC(c2cc(C(=O)CCc3ccc4occc4c3)c(O)cc2OC)C(O)C(O)C1O", "note": "[Compound 5, 3-(Benzo[b]furan-5-yl)-3′-(6-O-methoxycarbonyl-β-D-glucopyranosyl)-6′-hydroxy-4′-methoxy-propiopenone]", "Urinary glucose excretion (mg/24 hr)": 228}, {"smiles": "CCOc1cc(OCC)c(C2OC(CO)C(O)C(O)C2O)cc1C(=O)/C=C/c1ccc2occc2c1", "note": "(stereo not shown) [Compound 6]", "Urinary glucose excretion (mg/24 hr)": 8.9}, {"smiles": "COc1cc(O)c(C(=O)CCc2ccc3occc3c2)cc1C1OC(CO)C(O)C(O)C1O", "note": "(stereo not shown) [Compound 22]", "Urinary glucose excretion (mg/24 hr)": 124}]}, {"system": "not given", "experiment": "not given", "settings": "not given", "units": {"melting point": "°C"}, "values": [{"smiles": "COc1cc(O)c(C(=O)/C=C/c2ccc3occc3c2)c(CC2OC(CO)C(O)C(O)C2O)c1", "note": "[Compound 1, 3-(Benzo[b]furan-5-yl)-1-(2′-β-D-glucopyranosylmethyl-6′-hydroxy-4′-methoxy)acrylophenone]", "melting point": "135 to 136"}, {"smiles": "COc1cc(OC)c(C2OC(CO)C(O)C(O)C2O)cc1C(=O)/C=C/c1ccc2occc2c1", "note": "(stereo not shown) [Compound 2]", "melting point": "226 to 228"}, {"smiles": "COc1cc(O)c(C(=O)/C=C/c2ccc3occc3c2)cc1[C@@H]1O[C@H](CO)[C@@H](O)[C@H](O)[C@H]1O", "note": "[Compound 3, 3-(Benzo[b]furan-5-yl)-3′-β-D-glucopyranosyl-6′-hydroxy-4′-methoxyacrylophenone]", "melting point": "> 250"}, {"smiles": "COC(=O)OC[C@H]1O[C@@H](c2cc(C(=O)/C=C/c3ccc4occc4c3)c(O)cc2OC)[C@H](O)[C@@H](O)[C@@H]1O", "note": "[Compound 4, 3-(Benzo[b]furan-5-yl)-3′-(6-O-methoxycarbonyl-β-D-glucopyranosyl)-6′-hydroxy-4′-methoxy-acrylophenone]", "melting point": "195 to 196"}, {"smiles": "COC(=O)OCC1OC(c2cc(C(=O)CCc3ccc4occc4c3)c(O)cc2OC)C(O)C(O)C1O", "note": "[Compound 5, 3-(Benzo[b]furan-5-yl)-3′-(6-O-methoxycarbonyl-β-D-glucopyranosyl)-6′-hydroxy-4′-methoxy-propiopenone]", "melting point": "120 to 121"}, {"smiles": "CCOc1cc(OCC)c(C2OC(CO)C(O)C(O)C2O)cc1C(=O)/C=C/c1ccc2occc2c1", "note": "(stereo not shown) [Compound 6]", "melting point": "120 to 121"}, {"smiles": "CCOc1cc(O)c(C(=O)/C=C/c2ccc3occc3c2)cc1C1OC(CO)C(O)C(O)C1O", "note": "(stereo not shown) [Compound 7]", "melting point": "189 to 190"}, {"smiles": "Cc1cc(O)c(C(=O)/C=C/c2ccc3occc3c2)cc1C1OC(CO)C(O)C(O)C1O", "note": "(stereo not shown) [Compound 8]", "melting point": "228 to 229"}, {"smiles": "COc1cc(C)c(C(=O)/C=C/c2ccc3occc3c2)cc1C1OC(CO)C(O)C(O)C1O", "note": "(stereo not shown) [Compound 9]", "melting point": "137 to 138"}, {"smiles": "COc1cc(O)c(C(=O)/C=C/c2ccc(C)cc2)cc1C1OC(CO)C(O)C(O)C1O", "note": "(stereo not shown) [Compound 10]", "melting point": "181 to 183"}, {"smiles": "COc1cc(O)c(C(=O)/C=C/c2ccsc2)cc1C1OC(CO)C(O)C(O)C1O", "note": "(stereo not shown) [Compound 11]", "melting point": "239 to 242"}, {"smiles": "COc1cc(O)c(C(=O)/C=C/c2ccncc2)cc1C1OC(CO)C(O)C(O)C1O", "note": "(stereo not shown) [Compound 12]", "melting point": "183 to 185"}, {"smiles": "COc1cc(O)c(C(=O)/C=C/c2ccc3ccccc3c2)cc1C1OC(CO)C(O)C(O)C1O", "note": "(stereo not shown) [Compound 13]", "melting point": "236 to 239"}, {"smiles": "COc1cc(O)c(C(=O)/C=C/c2ccnc3ccccc23)cc1C1OC(CO)C(O)C(O)C1O", "note": "(stereo not shown) [Compound 14]", "melting point": "226 to 228"}, {"smiles": "COc1cc(O)c(C(=O)/C=C/c2ccc3c(c2)CCC3)cc1C1OC(CO)C(O)C(O)C1O", "note": "(stereo not shown) [Compound 15]", "melting point": "245 to 248"}, {"smiles": "COc1cc(O)c(C(=O)/C=C/c2ccc3occc3c2)c(OC)c1C1OC(CO)C(O)C(O)C1O", "note": "(stereo not shown) [Compound 16]", "melting point": "198 to 199"}, {"smiles": "COc1cc(O)c(C(=O)/C=C/c2ccc3[nH]ccc3c2)cc1C1OC(CO)C(O)C(O)C1O", "note": "(stereo not shown) [Compound 17]", "melting point": "194 to 196"}, {"smiles": "COc1cc(O)c(C(=O)/C=C/c2ccc3sccc3c2)cc1C1OC(CO)C(O)C(O)C1O", "note": "(stereo not shown) [Compound 18]", "melting point": "217 to 220"}, {"smiles": "COc1cc(O)c(C(=O)/C=C/c2ccc3c(c2)CCO3)cc1C1OC(CO)C(O)C(O)C1O", "note": "(stereo not shown) [Compound 19]", "melting point": "276 to 279"}, {"smiles": "COc1cc(O)c(C(=O)/C=C/c2cc3ccccc3o2)cc1C1OC(CO)C(O)C(O)C1O", "note": "(stereo not shown) [Compound 20]", "melting point": "256 to 257"}, {"smiles": "COc1cc(O)c(C(=O)CCc2ccc3occc3c2)c(C[C@@H]2O[C@H](CO)[C@@H](O)[C@H](O)[C@H]2O)c1", "note": "[Compound 21, 3-(Benzo[b]furan-5-yl)-2′-β-D-glucopyranosylmethyl-6′-hydroxy-4′-methoxypropiophenone]", "melting point": "103 to 105"}, {"smiles": "COc1cc(O)c(C(=O)CCc2ccc3occc3c2)cc1C1OC(CO)C(O)C(O)C1O", "note": "(stereo not shown) [Compound 22]", "melting point": "226 to 228"}, {"smiles": "COc1cc(OC)c(C2OC(CO)C(O)C(O)C2O)cc1C(=O)CCc1ccc2occc2c1", "note": "(stereo not shown) [Compound 23]", "melting point": "112 to 113"}, {"smiles": "CCOc1cc(OCC)c(C2OC(CO)C(O)C(O)C2O)cc1C(=O)CCc1ccc2occc2c1", "note": "(stereo not shown) [Compound 24]", "melting point": "89 to 90"}, {"smiles": "CCOc1cc(O)c(C(=O)CCc2ccc3occc3c2)cc1C1OC(CO)C(O)C(O)C1O", "note": "(stereo not shown) [Compound 25]", "melting point": "175 to 176"}, {"smiles": "Cc1cc(O)c(C(=O)CCc2ccc3occc3c2)cc1C1OC(CO)C(O)C(O)C1O", "note": "(stereo not shown) [Compound 26]", "melting point": "191 to 192"}, {"smiles": "COc1cc(C)c(C(=O)CCc2ccc3occc3c2)cc1C1OC(CO)C(O)C(O)C1O", "note": "(stereo not shown) [Compound 27]", "melting point": "118 to 119"}, {"smiles": "COc1cc(O)c(C(=O)CCc2ccc3c(c2)CCC3)cc1C1OC(CO)C(O)C(O)C1O", "note": "(stereo not shown) [Compound 28]", "melting point": "194 to 196"}, {"smiles": "COc1cc(O)c(C(=O)CCc2ccc3occc3c2)c(OC)c1C1OC(CO)C(O)C(O)C1O", "note": "(stereo not shown) [Compound 29]", "melting point": "131 to 132"}, {"smiles": "COc1cc(O)c(C(=O)CCc2ccc3[nH]ccc3c2)cc1C1OC(CO)C(O)C(O)C1O", "note": "(stereo not shown) [Compound 30]", "melting point": "66 to 71"}, {"smiles": "COc1cc(O)c(C(=O)CCc2cc3ccccc3o2)cc1C1OC(CO)C(O)C(O)C1O", "note": "(stereo not shown) [Compound 31]", "melting point": "216 to 217"}, {"smiles": "COc1cc(O)c(C(=O)/C=C/c2ccc3occc3c2)cc1C1OC(COC(=O)CCC(=O)O)C(O)C(O)C1O", "note": "(stereo not shown) [Compound 42]", "melting point": "71 to 73"}, {"smiles": "COc1cc(O)c(C(=O)/C=C/c2ccc3occc3c2)cc1C1OC(C(=O)[O-])C(O)C(O)C1O.[Na+]", "note": "[Compound 43, 3-(Benzo[b]furan-5-yl)-3′-(6-carboxysodium salt-β-D-glucopyranosyl)4′-methoxy-6′-hydroxy-acrylophenone]", "melting point": "115 to 117"}, {"smiles": "COc1cc(O)c(C(=O)/C=C/c2ccc3occc3c2)cc1C1OC(COS(=O)(=O)O)C(O)C(O)C1O", "note": "[Compound 44, 3-(Benzo[b]furan-5-yl)-3′-(6-sulfonic acid-β-D-glucopyranosyl)-4′-methoxy-6′-hydroxyacrylophenone]", "melting point": "177 to 179"}, {"smiles": "COc1cc(O)c(C(=O)CCc2ccc3occc3c2)cc1C1OC(COC(=O)CCC(=O)O)C(O)C(O)C1O", "note": "(stereo not shown) [Compound 47]", "melting point": "113 to 114"}, {"smiles": "COc1cc(O)c(C(=O)CCc2ccc3occc3c2)cc1C1OC(COC(=O)CCC(=O)[O-])C(O)C(O)C1O.[Na+]", "note": "(stereo not shown) [Compound 48]", "melting point": 262}, {"smiles": "Cc1cc(O)c(C(=O)/C=C/c2ccc3occc3c2)c(CC2OC(CO)C(O)C(O)C2O)c1", "note": "[Compound 51, 3-(Benzo[b]furan-5-yl)-1-[6-hydroxy-4-methyl-2-{(β-D-glucopyranos-1-yl)methyl}]acrylophenone]", "melting point": "103 to 105"}, {"smiles": "Cc1cc(O)c(C(=O)CCc2ccc3occc3c2)c(CC2OC(CO)C(O)C(O)C2O)c1", "note": "[Compound 52, 3-(Benzo[b]furan-5-yl)-1-[6-hydroxy-4-methyl-2-{(β-D-glucopyranos-1-yl)methyl}]propiophenone]", "melting point": "85 to 87"}, {"smiles": "COC(=O)OCC1OC(Cc2cc(C)cc(O)c2C(=O)CCc2ccc3occc3c2)C(O)C(O)C1O", "note": "[Compound 53, 3-Benzo [b]furan-5-yl-1-(6-hydroxy-4-methyl-2-{[6-methoxycarbonyl-β-D-glucopyranos-1-yl]methyl})propiophenone]", "melting point": "58 to 60"}, {"smiles": "O=C(CCc1ccc(O)cc1)c1c(O)cc(O)cc1CC1OC(CO)C(O)C(O)C1O", "note": "[Compound 54, 1-[2,4-Dihydroxy-6-{(β-D-glicopyranosyl)methyl}phenyl]-3-(4-hydroxyphenyl)propan-1-one]", "melting point": "227 to 228"}, {"smiles": "COc1cc(C)cc(CC2OC(CO)C(O)C(O)C2O)c1C(=O)/C=C/c1ccc2occc2c1", "note": "(stereo not shown) [Compound 55]", "melting point": "80 to 83"}, {"smiles": "COc1cc(C)cc(CC2OC(CO)C(O)C(O)C2O)c1C(=O)/C=C/c1ccc2occc2c1", "note": "(stereo not shown) [Compound 57]", "melting point": "118 to 120"}, {"smiles": "COC(=O)OCC1OC(Cc2cc(O)cc(O)c2C(=O)CCc2ccc(O)cc2)C(O)C(O)C1O", "note": "(stereo not shown) [Compound 58]", "melting point": "199 to 201"}]}]}
